Where a name gives a salt, the structure may show the parent alone.
Tests used:
Test in all cases: Hydrolysis on Columbia agar with ferric ammonium citrate
Assay type in all cases: cell-based
Y. enterocolitica = test system: Y. enterocolitica
Protocol: (§1) The chromogenic β-D-ribofuranoside substrate was added to Columbia agar at a substrate concentration of 300 mg/l. Ferric ammonium citrate was included at 500 mg/l. All ingredients were autoclaved at 116° C. for 20 minutes to ensure sterilisation. Agar plates were then prepared in 90 mm petri dishes. The substrate caused a yellow colouration of the agar.
(§2) For each strain tested, a bacterial suspension was prepared in sterile deionised water at an inoculum of approximately 1.5×10^8 colony forming units per ml. This was achieved using a densitometer. 1 μl of each bacterial suspension was then inoculated onto each plate using a multipoint inoculator. Strains were inoculated in parallel onto Columbia agar containing ferric ammonium citrate with no substrate (negative control).
(§3) After 18 hours incubation, strains were examined visually for the presence of colour. Any strains producing a black colouration on substrate containing media but not on the negative control plates were deemed to be hydrolysing the substrate.

P. aeruginosa = test system: P. aeruginosa
Protocol: as §1, §2, §3

[1] = test system: Streptococcus constellatus; conditions: Streptococcus constellatus NCTC 11325
Protocol: as §1, §2, §3

[2] = test system: Providencia alcalifaciens
Protocol: as §1, §2, §3

P. penneri = P. penneri PPE 1
Protocol: as §1, §2, §3

Vibrio alcaligenes = Vibrio alcaligenes NCTC 12160
Protocol: as §1, §2, §3

[3] = test system: Arcanobacterium haemolyticus
Protocol: as §1, §2, §3

[4] = test system: Haemolytic streptococcus A
Protocol: as §1, §2, §3

M. morganii = test system: M. morganii
Protocol: as §1, §2, §3

Vibrio vulnificus = test system: Vibrio vulnificus
Protocol: as §1, §2, §3

staphylococci = conditions: all of the staphylococci
Protocol: as §1, §2, §3

Shigella genus = test system: Shigella genus
Protocol: as §1, §2, §3

Enterococcus gallinarum = Enterococcus gallinarum NCTC 11428
Protocol: as §1, §2, §3

A. baumanii = A. baumanii ATCC 19606
Protocol: as §1, §2, §3

[5] = test system: Haemolytic streptococcus B
Protocol: as §1, §2, §3

Streptococcus mitis = Streptococcus mitis NCTC 12261
Protocol: as §1, §2, §3

Enterococcus faecalis = test system: Enterococcus faecalis
Protocol: as §1, §2, §3

Enterococcus faecium = test system: Enterococcus faecium
Protocol: as §1, §2, §3

Providencia stuartii = test system: Providencia stuartii
Protocol: as §1, §2, §3

P. rettgeri = P. rettgeri NCTC 7475
Protocol: as §1, §2, §3

Streptococcus crista = Streptococcus crista NCTC 12479
Protocol: as §1, §2, §3

Listeria ivanovii = Listeria ivanovii PHLS wild
Protocol: as §1, §2, §3

Listeria innocua = Listeria innocua PHLS wild
Protocol: as §1, §2, §3

Streptococcus agalactiae = Streptococcus agalactiae NCTC 8181
Protocol: as §1, §2, §3

Enterococcus mundtii = Enterococcus mundtii NCTC 12363
Protocol: as §1, §2, §3

Streptococcus pneumoniae = Streptococcus pneumoniae NCTC 7465
Protocol: as §1, §2, §3

A. lwoffii = A. lwoffii ATCC 15309
Protocol: as §1, §2, §3

Vibrio cholerae = test system: Vibrio cholerae
Protocol: as §1, §2, §3

Enterococcus raffinosis = Enterococcus raffinosis NCTC 13192
Protocol: as §1, §2, §3

Enterococcus casseflavus = Enterococcus casseflavus NCTC 12361
Protocol: as §1, §2, §3

Streptococcus oralis = Streptococcus oralis NCTC11427
Protocol: as §1, §2, §3

Streptococcus sanguis = Streptococcus sanguis NCTC 7863
Protocol: as §1, §2, §3

enterococci = enterococci (‘faecal streptococci’)
Protocol: as §1, §2, §3

O=c1cc(-c2ccc(OC3OC(CO)C(O)C3O)c(O)c2)oc2ccccc12 [DHF-riboside, 3′,4′-Dihydroxyflavone-4′-β-D-ribofuranoside sodium salt]
β-Riboside (hydrolysis) (Y. enterocolitica; Y. enterocolitica NCTC 10460): −
β-Riboside (hydrolysis) (Y. enterocolitica; Y. enterocolitica NCTC 11176): −
β-Riboside (hydrolysis) (Y. enterocolitica; Y. enterocolitica NCTC 11177): −
β-Riboside (hydrolysis) (Y. enterocolitica; Y. enterocolitica NCTC 11600): −
β-Riboside (hydrolysis) (P. aeruginosa; P. aeruginosa ATCC 10145): +
β-Riboside (hydrolysis) (P. aeruginosa; P. aeruginosa NCTC 10662): +
β-Ribofuranoside (hydrolysis) [1]: −
β-Riboside (hydrolysis) ([2]; Providencia alcalifaciens PAL 1): +
β-Riboside (hydrolysis) ([2]; Providencia alcalifaciens PAL 2): −
β-Riboside (hydrolysis) (P. penneri): −
β-Riboside (hydrolysis) (Vibrio alcaligenes): −
Activity with the substrate ([3]; Arcanobacterium haemolyticum): active
β-Ribofuranoside (hydrolysis) ([3]; Arcanobacterium haemolyticus NCTC 52): +
β-Ribofuranoside (hydrolysis) ([4]; Reference No. 1): −
β-Ribofuranoside (hydrolysis) ([4]; Reference No. 2): −
β-Ribofuranoside (hydrolysis) ([4]; Reference No. 3): −
β-Riboside (hydrolysis) (M. morganii; M. morganii MMO 1): +
β-Riboside (hydrolysis) (M. morganii; M. morganii MMO 2): +
β-Riboside (hydrolysis) (M. morganii; M. morganii NCTC 235): −
β-Riboside (hydrolysis) (Vibrio vulnificus; Vibrio vulnificus NCTC 11066): −
β-Riboside (hydrolysis) (Vibrio vulnificus; Vibrio vulnificus NCTC 11067): −
Activity with the substrate (staphylococci): positive
β-D-ribofuranosidase activity (Shigella genus): uniformly positive
β-Ribofuranoside (hydrolysis) (Enterococcus gallinarum): +
β-Riboside (hydrolysis) (A. baumanii): −
β-Ribofuranoside (hydrolysis) ([5]; Reference No. 1): −
β-Ribofuranoside (hydrolysis) ([5]; Reference No. 2): −
β-Ribofuranoside (hydrolysis) ([5]; Reference No. 3): −
β-Ribofuranoside (hydrolysis) (Streptococcus mitis): −
β-Ribofuranoside (hydrolysis) (Enterococcus faecalis; Reference No. 1): −
β-Ribofuranoside (hydrolysis) (Enterococcus faecalis; Reference No. 2): +
β-Ribofuranoside (hydrolysis) (Enterococcus faecalis; Reference No. 3): +
β-Ribofuranoside (hydrolysis) (Enterococcus faecalis; Reference No. 4): +
β-Ribofuranoside (hydrolysis) (Enterococcus faecalis; Reference No. 5): +
β-Ribofuranoside (hydrolysis) (Enterococcus faecalis; Reference No. 6): +
β-Ribofuranoside (hydrolysis) (Enterococcus faecalis; Reference No. 7): −
β-Ribofuranoside (hydrolysis) (Enterococcus faecium; Enterococcus faecium 121285 - wild ′99): −
β-Ribofuranoside (hydrolysis) (Enterococcus faecium; Enterococcus faecium, Reference No. 1): −
β-Ribofuranoside (hydrolysis) (Enterococcus faecium; Enterococcus faecium, Reference No. 2): −
β-Ribofuranoside (hydrolysis) (Enterococcus faecium; Enterococcus faecium, Reference No. 3): −
β-Ribofuranoside (hydrolysis) (Enterococcus faecium; Enterococcus faecium, Reference No. 4): +
β-Ribofuranoside (hydrolysis) (Enterococcus faecium; Enterococcus faecium, Reference No. 5): −
β-Ribofuranoside (hydrolysis) (Enterococcus faecium; Enterococcus faecium, Reference No. 6): +
β-Ribofuranoside (hydrolysis) (Enterococcus faecium; Enterococcus faecium, Reference No. 7): −
β-Riboside (hydrolysis) (Providencia stuartii; Providencia stuartii PST 1): +
β-Riboside (hydrolysis) (Providencia stuartii; Providencia stuartii PST 2): +
β-Riboside (hydrolysis) (P. rettgeri): +
β-Ribofuranoside (hydrolysis) (Streptococcus crista): −
β-Ribofuranoside (hydrolysis) (Listeria ivanovii): +
β-Ribofuranoside (hydrolysis) (Listeria innocua): −
β-Ribofuranoside (hydrolysis) (Streptococcus agalactiae): −
β-Ribofuranoside (hydrolysis) (Enterococcus mundtii): +
β-Ribofuranoside (hydrolysis) (Streptococcus pneumoniae): −
β-Riboside (hydrolysis) (A. lwoffii): −
β-Riboside (hydrolysis) (Vibrio cholerae; Vibrio cholera NCTC 6585): −
β-Riboside (hydrolysis) (Vibrio cholerae; Vibrio cholera NCTC 7270): −
β-Riboside (hydrolysis) (Vibrio cholerae; Vibrio cholera NCTC 8021): −
β-Riboside (hydrolysis) (Vibrio cholerae; Vibrio cholera NCTC 10732): −
β-Riboside (hydrolysis) (Vibrio cholerae; Vibrio cholera NCTC 12945): −
β-Riboside (hydrolysis) (Vibrio cholerae; Vibrio cholerae NCTC 7254): −
β-Riboside (hydrolysis) (Vibrio cholerae; Vibrio cholerae NCTC 8042): −
β-Riboside (hydrolysis) (Vibrio cholerae; Vibrio cholerae NCTC 10255): −
β-Riboside (hydrolysis) (Vibrio cholerae; Vibrio cholerae NCTC 10954): −
β-Ribofuranoside (hydrolysis) (Enterococcus raffinosis): +
β-Ribofuranoside (hydrolysis) (Enterococcus casseflavus): −
β-Ribofuranoside (hydrolysis) (Streptococcus oralis): −
β-Ribofuranoside (hydrolysis) (Streptococcus sanguis): −
Activity with the substrate (enterococci): variable

From patent publication US7709223B2, “Method for detecting bacteria with chromogenic substrates for β-D-ribofuranosidase” (priority 2001, dated 2010)
